Assay results: ChEMBL document CHEMBL1151019, “Kinetics of thermal [1,7a]-sigmatropic shift of hexafluoro vitamin D3 and vitamin D3 derivatives. Evaluation of conformations of the A ring affected by 1-OH and 3-OH groups” (Bioorg Med Chem Lett, 1996)

assay: Kinetic constant for the transformation of vitamin D to Previtamin D (kl / k-1)

Compound	Keq
C=C1CC[C@H](O)C/C1=C/C=C1\CCC[C@]2(C)[C@@H]([C@H](C)CCCC(C)C)CC[C@@H]12	3.71
C=C1CCCC/C1=C/C=C1\CCC[C@]2(C)C([C@H](C)CCCC(C)C)CC[C@@H]12 (stereo not given in full)	3.06
C=C1/C(=C\C=C2/CCC[C@]3(C)[C@@H]([C@H](C)CCCC(C)C)CC[C@@H]23)C[C@@H](O)C[C@@H]1O	5.18
C=C1/C(=C\C=C2/CCC[C@]3(C)C([C@H](C)CCCC(O)(C(F)(F)F)C(F)(F)F)CC[C@@H]23)C[C@@H](O)C[C@@H]1O (stereo not given in full)	5.1
C=C1/C(=C\C=C2/CCC[C@]3(C)C([C@H](C)C[C@H](O)CC(O)(C(F)(F)F)C(F)(F)F)CC[C@@H]23)C[C@@H](O)C[C@@H]1O (stereo not given in full)	5.46
